Test results reported in PubChem BioAssay AID1919010 (Molecular Pharmacology Branch, DTP, NCI, 2023).
Blank lines part the entries; values can stand above or below the compound they belong to.

Tested on: Hs578T complex spheroid growth, percent test/control
Experiment: Anticancer human tumor Hs578T cell line growth inhibition [AhR];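 note: luminescent viability signal as a proxy for spheroid growth; spheroids exposed to agents for one week after three days of growth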
Details: for viability, T/C: stronger effect = lower value
In short: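 Agents were dosed in half-log steps down from roughly clinical Cmax, or from 10 microM where Cmax was unknown, alone and with AhR antagonists. Read-out: percent test/control growth of tumor spheroids containing HUVEC and MSC stromal cells.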

[1] = curve of first compound, second compound 0.1 µM
[2] = curve of first compound, second compound 0.316 µM
[3] = curve of first compound, second compound 1 µM
[4] = curve of first compound, second compound 3.16 µM
[5] = curve of first compound, second compound 10 µM
[6] = second compound 0.1 µM, first compound 0.0316 µM
[7] = second compound 0.1 µM, first compound 0.1 µM
[8] = second compound 0.1 µM, first compound 0.316 µM
[9] = second compound 0.1 µM, first compound 1 µM
[10] = second compound 0.316 µM, first compound 0.0316 µM
[11] = second compound 0.316 µM, first compound 0.1 µM
[12] = second compound 0.316 µM, first compound 0.316 µM
[13] = second compound 0.316 µM, first compound 1 µM
[14] = second compound 1 µM, first compound 0.0316 µM
[15] = second compound 1 µM, first compound 0.1 µM
[16] = second compound 1 µM, first compound 0.316 µM
[17] = second compound 1 µM, first compound 1 µM
[18] = second compound 3.16 µM, first compound 0.0316 µM
[19] = second compound 3.16 µM, first compound 0.1 µM
[20] = second compound 3.16 µM, first compound 0.316 µM
[21] = second compound 3.16 µM, first compound 1 µM
[22] = second compound 10 µM, first compound 0.0316 µM
[23] = second compound 10 µM, first compound 0.1 µM
[24] = second compound 10 µM, first compound 0.316 µM
[25] = second compound 10 µM, first compound 1 µM
[26] = second compound 0.1 µM, first compound 3.16 µM
[27] = second compound 0.1 µM, first compound 10 µM
[28] = second compound 0.316 µM, first compound 3.16 µM
[29] = second compound 0.316 µM, first compound 10 µM
[30] = second compound 1 µM, first compound 3.16 µM
[31] = second compound 1 µM, first compound 10 µM
[32] = second compound 3.16 µM, first compound 3.16 µM
[33] = second compound 3.16 µM, first compound 10 µM
[34] = second compound 10 µM, first compound 3.16 µM
[35] = second compound 10 µM, first compound 10 µM
[36] = second compound 0.1 µM, first compound 0.00949 µM
[37] = second compound 0.1 µM, first compound 0.03 µM
[38] = second compound 0.1 µM, first compound 0.0949 µM
[39] = second compound 0.1 µM, first compound 0.3 µM
[40] = second compound 0.316 µM, first compound 0.00949 µM
[41] = second compound 0.316 µM, first compound 0.03 µM
[42] = second compound 0.316 µM, first compound 0.0949 µM
[43] = second compound 0.316 µM, first compound 0.3 µM
[44] = second compound 1 µM, first compound 0.00949 µM
[45] = second compound 1 µM, first compound 0.03 µM
[46] = second compound 1 µM, first compound 0.0949 µM
[47] = second compound 1 µM, first compound 0.3 µM
[48] = second compound 3.16 µM, first compound 0.00949 µM
[49] = second compound 3.16 µM, first compound 0.03 µM
[50] = second compound 3.16 µM, first compound 0.0949 µM
[51] = second compound 3.16 µM, first compound 0.3 µM
[52] = second compound 10 µM, first compound 0.00949 µM
[53] = second compound 10 µM, first compound 0.03 µM
[54] = second compound 10 µM, first compound 0.0949 µM
[55] = second compound 10 µM, first compound 0.3 µM

SMILES: Nc1ncn(C2CC(O)C(CO)O2)c(=O)n1 (centres undefined) + Cc1cncc(-c2nc(NCCc3c[nH]c4ccccc34)c3ncn(C(C)C)c3n2)c1
IC50 [1]: > 1000 nM | IC50 [2]: > 1000 nM | IC50 [3]: > 1000 nM | IC50 [4]: > 1000 nM | IC50 [5]: < 3.16 nM | viability, T/C (second compound 0.1 µM, first compound 0.00316 µM): 105% | viability, T/C (second compound 0.1 µM, first compound 0.01 µM): 114% | viability, T/C [6]: 111% | viability, T/C [7]: 112% | viability, T/C [8]: 108% | viability, T/C [9]: 106% | viability, T/C (second compound 0.316 µM, first compound 0.00316 µM): 116% | viability, T/C (second compound 0.316 µM, first compound 0.01 µM): 110% | viability, T/C [10]: 119% | viability, T/C [11]: 111% | viability, T/C [12]: 106% | viability, T/C [13]: 102% | viability, T/C (second compound 1 µM, first compound 0.00316 µM): 109% | viability, T/C (second compound 1 µM, first compound 0.01 µM): 105% | viability, T/C [14]: 112% | viability, T/C [15]: 108% | viability, T/C [16]: 112% | viability, T/C [17]: 108% | viability, T/C (second compound 3.16 µM, first compound 0.00316 µM): 73.1% | viability, T/C (second compound 3.16 µM, first compound 0.01 µM): 76.2% | viability, T/C [18]: 82.6% | viability, T/C [19]: 74.4% | viability, T/C [20]: 77.4% | viability, T/C [21]: 75.7% | viability, T/C (second compound 10 µM, first compound 0.00316 µM): 6.02% | viability, T/C (second compound 10 µM, first compound 0.01 µM): 6.62% | viability, T/C [22]: 6.65% | viability, T/C [23]: 6.53% | viability, T/C [24]: 6.26% | viability, T/C [25]: 6.45%

SMILES: CCN(c1cc(-c2ccc(CN3CCOCC3)cc2)cc(C(=O)NCc2c(C)cc(C)[nH]c2=O)c1C)C1CCOCC1 + Cc1cncc(-c2nc(NCCc3c[nH]c4ccccc34)c3ncn(C(C)C)c3n2)c1
IC50 [1]: > 3000 nM | IC50 [2]: > 3000 nM | IC50 [3]: > 3000 nM | IC50 [4]: < 9.49 nM | IC50 [5]: < 9.49 nM | viability, T/C [36]: 111% | viability, T/C [37]: 95.9% | viability, T/C [38]: 101% | viability, T/C [39]: 107% | viability, T/C (second compound 0.1 µM, first compound 0.949 µM): 94.4% | viability, T/C (second compound 0.1 µM, first compound 3 µM): 106% | viability, T/C [40]: 111% | viability, T/C [41]: 99.9% | viability, T/C [42]: 106% | viability, T/C [43]: 96.6% | viability, T/C (second compound 0.316 µM, first compound 0.949 µM): 99.5% | viability, T/C (second compound 0.316 µM, first compound 3 µM): 90.7% | viability, T/C [44]: 103% | viability, T/C [45]: 102% | viability, T/C [46]: 101% | viability, T/C [47]: 93.5% | viability, T/C (second compound 1 µM, first compound 0.949 µM): 105% | viability, T/C (second compound 1 µM, first compound 3 µM): 93.3% | viability, T/C [48]: 49.8% | viability, T/C [49]: 46.4% | viability, T/C [50]: 51.5% | viability, T/C [51]: 48% | viability, T/C (second compound 3.16 µM, first compound 0.949 µM): 46% | viability, T/C (second compound 3.16 µM, first compound 3 µM): 51.7% | viability, T/C [52]: 6.41% | viability, T/C [53]: 5.56% | viability, T/C [54]: 7.45% | viability, T/C [55]: 5.08% | viability, T/C (second compound 10 µM, first compound 0.949 µM): 5.95% | viability, T/C (second compound 10 µM, first compound 3 µM): 3.67%

SMILES: Cc1cncc(-c2nc(NCCc3c[nH]c4ccccc34)c3ncn(C(C)C)c3n2)c1
viability, T/C (compound 0.1 µM): 107% [middle of 20 runs] | viability, T/C (compound 0.316 µM): 110% [middle of 20 runs] | viability, T/C (compound 10 µM): 6.41% [middle of 20 runs] | IC50 (compound alone, run of 08/16/2022): 4.32 µM [middle of 24 runs]

Now from value to compound, other results behind:

IC50 [1]: 469 nM | IC50 [2]: 502 nM | IC50 [3]: 497 nM | IC50 [4]: 398 nM | IC50 [5]: 374 nM
SMILES: COc1cccc2c1C(=O)c1c(O)c3c(c(O)c1C2=O)CC(O)(C(=O)CO)CC3OC1CC(N)C(O)C(C)O1 (centres undefined) + CC(CO)NC(=O)c1cc(-c2ccc(Cl)cc2)nn(-c2cnn(C)c2)c1=O
viability, T/C [6]: 96.3% | viability, T/C [7]: 86.2% | viability, T/C [8]: 64.6% | viability, T/C [9]: 23.9% | viability, T/C [26]: 3.62% | viability, T/C [27]: 3.54% | viability, T/C [10]: 78.7% | viability, T/C [11]: 84.3% | viability, T/C [12]: 66.8% | viability, T/C [13]: 24.1% | viability, T/C [28]: 2.56% | viability, T/C [29]: 2.88% | viability, T/C [14]: 92% | viability, T/C [15]: 88.1% | viability, T/C [16]: 67.8% | viability, T/C [17]: 22.7% | viability, T/C [30]: 3.26% | viability, T/C [31]: 2.93% | viability, T/C [18]: 88.6% | viability, T/C [19]: 91% | viability, T/C [20]: 58.1% | viability, T/C [21]: 14.6% | viability, T/C [32]: 2.55% | viability, T/C [33]: 3.04% | viability, T/C [22]: 78.3% | viability, T/C [23]: 86.4% | viability, T/C [24]: 57.8% | viability, T/C [25]: 4.9% | viability, T/C [34]: 2.84% | viability, T/C [35]: 2.14%

IC50 [1]: 7 nM | IC50 [2]: 6.66 nM | IC50 [3]: 5.92 nM | IC50 [4]: 3.77 nM | IC50 [5]: < 0.949 nM
SMILES: CC(C)CC(NC(=O)C(Cc1ccccc1)NC(=O)c1cnccn1)B(O)O (centres undefined) + Cc1cncc(-c2nc(NCCc3c[nH]c4ccccc34)c3ncn(C(C)C)c3n2)c1
viability, T/C (second compound 0.1 µM, first compound 0.000949 µM): 101% | viability, T/C (second compound 0.1 µM, first compound 0.003 µM): 101% | viability, T/C [36]: 31.8% | viability, T/C [37]: 0.32% | viability, T/C [38]: 0.25% | viability, T/C [39]: 0.36% | viability, T/C (second compound 0.316 µM, first compound 0.000949 µM): 112% | viability, T/C (second compound 0.316 µM, first compound 0.003 µM): 101% | viability, T/C [40]: 27.3% | viability, T/C [41]: 0.39% | viability, T/C [42]: 0.31% | viability, T/C [43]: 0.31% | viability, T/C (second compound 1 µM, first compound 0.000949 µM): 97.8% | viability, T/C (second compound 1 µM, first compound 0.003 µM): 86.5% | viability, T/C [44]: 24.8% | viability, T/C [45]: 0.28% | viability, T/C [46]: 0.19% | viability, T/C [47]: 0.29% | viability, T/C (second compound 3.16 µM, first compound 0.000949 µM): 69.4% | viability, T/C (second compound 3.16 µM, first compound 0.003 µM): 58% | viability, T/C [48]: 17.3% | viability, T/C [49]: 0.24% | viability, T/C [50]: 0.24% | viability, T/C [51]: 0.28% | viability, T/C (second compound 10 µM, first compound 0.000949 µM): 5.56% | viability, T/C (second compound 10 µM, first compound 0.003 µM): 6.44% | viability, T/C [52]: 1.16% | viability, T/C [53]: 0.57% | viability, T/C [54]: 0.26% | viability, T/C [55]: 0.36%

IC50 [1]: 914 nM | IC50 [2]: 995 nM | IC50 [3]: 1240 nM | IC50 [4]: 2010 nM | IC50 [5]: 2320 nM
SMILES: NS(=O)(=O)OCC1CC(n2ccc3c(NC4CCc5ccccc54)ncnc32)CC1O (centres undefined) + CC(CO)NC(=O)c1cc(-c2ccc(Cl)cc2)nn(-c2cnn(C)c2)c1=O
viability, T/C [6]: 104% | viability, T/C [7]: 95.3% | viability, T/C [8]: 69.9% | viability, T/C [9]: 47.6% | viability, T/C [26]: 41.4% | viability, T/C [27]: 33% | viability, T/C [10]: 114% | viability, T/C [11]: 81% | viability, T/C [12]: 75% | viability, T/C [13]: 50% | viability, T/C [28]: 30.1% | viability, T/C [29]: 29.4% | viability, T/C [14]: 109% | viability, T/C [15]: 90.6% | viability, T/C [16]: 77.9% | viability, T/C [17]: 52.7% | viability, T/C [30]: 34.7% | viability, T/C [31]: 27.8% | viability, T/C [18]: 119% | viability, T/C [19]: 91.3% | viability, T/C [20]: 90.2% | viability, T/C [21]: 55.9% | viability, T/C [32]: 41.6% | viability, T/C [33]: 34.8% | viability, T/C [22]: 95.1% | viability, T/C [23]: 96.6% | viability, T/C [24]: 88.9% | viability, T/C [25]: 65.2% | viability, T/C [34]: 44.1% | viability, T/C [35]: 40.8%
